In patent publication US12550923B2, “Allulose syrups” (Tate & Lyle Solutions USA LLC, priority 2015, dated 2026):

Experiment: Crystallization stability of seeded allulose syrups
Type: physicochemical
Conditions: 25° C.
Protocol: Allulose syrups were prepared at 50, 60, 71, 77, and 85% DS and were equilibrated at 25° C., 15° C. and 4° C. These samples were seeded with ˜0.1% crystalline allulose and crystallization was monitored visually and by change in dry solids of the syrup fraction after 1 month of storage.
A change in DS greater than 0 indicates crystallization, and a larger number indicates a larger amount of crystallization. […] Therefore, for storage of a crystallization stable syrup at ambient and reduced temperatures, 77% solids or less is desirable. For cool (<25° C.) temperatures, 71% solids or less is more desirable.

With `O=C(CO)C(O)C(O)C(O)CO` (stereo not shown) [allulose] the “limit of solubility (DS)” value was roughly 77%.
